Values joined by “and” are separate entries in the source; they are usually repeats but may differ in a detail not shown here. Identical values can stand only once.
System: BDF1 mice, Adenocarcinoma 755 s.c., tumor weight T/C
Assay: NCI In Vivo Anticancer Drug Screen. Data for tumor model Adenocarcinoma 755 (subcutaneous) in B6D2F1 (BDF1) mice
Conditions: endpoint: mean tumor weight, higher = larger tumour
Procedure: The antitumor activity of compounds was measured in mice bearing transplantable tumors. Survival or tumor size were measured and the results are expressed as the measurement made in the treated group (T) divided by the measurement made in the vehicle treated control group (C). The tumor model used in this assay is Adenocarcinoma 755 (subcutaneous) in B6D2F1 (BDF1) mice

[1] = dose: 25.0 mg/kg/injection, schedule: Q01DX011 (ip), vehicle: carboxymethylcellulose (CMC)
[2] = dose: 50.0 mg/kg/injection, schedule: Q01DX011 (ip), vehicle: carboxymethylcellulose (CMC)
[3] = dose: 150.0 mg/kg/injection, schedule: Q01DX011 (ip), vehicle: carboxymethylcellulose (CMC)
[4] = dose: 200.0 mg/kg/injection, schedule: Q01DX011 (ip), vehicle: carboxymethylcellulose (CMC)
[5] = dose: 200.0 mg/kg/injection, schedule: Q01DX011 (ip), vehicle: methylcellulose (MC)
[6] = dose: 75.0 mg/kg/injection, schedule: Q01DX011 (ip), vehicle: methylcellulose (MC)
[7] = dose: 30.0 mg/kg/injection, schedule: Q01DX011 (ip), vehicle: carboxymethylcellulose (CMC)
[8] = dose: 60.0 mg/kg/injection, schedule: Q01DX011 (ip), vehicle: carboxymethylcellulose (CMC)
[9] = dose: 120.0 mg/kg/injection, schedule: Q01DX011 (ip), vehicle: carboxymethylcellulose (CMC)
[10] = dose: 240.0 mg/kg/injection, schedule: Q01DX011 (ip), vehicle: carboxymethylcellulose (CMC)
[11] = dose: 100.0 mg/kg/injection, schedule: Q01DX011 (ip), vehicle: carboxymethylcellulose (CMC)

CN1c2ccc3ccccc3c2Sc2ccc3ccccc3c21
T/C (dose: 8.25 mg/kg/injection, schedule: Q01DX011 (ip), vehicle: carboxymethylcellulose (CMC)): 53 % of control | T/C (dose: 16.5 mg/kg/injection, schedule: Q01DX011 (ip), vehicle: carboxymethylcellulose (CMC)): 71 % of control | T/C [1]: 59 % of control | T/C (dose: 29.0 mg/kg/injection, schedule: Q01DX011 (ip), vehicle: carboxymethylcellulose (CMC)): 66 % of control | T/C (dose: 33.0 mg/kg/injection, schedule: Q01DX011 (ip), vehicle: carboxymethylcellulose (CMC)): 46 % of control | T/C (dose: 44.0 mg/kg/injection, schedule: Q01DX011 (ip), vehicle: carboxymethylcellulose (CMC)): 80 % of control | T/C [2]: 69 % of control | T/C (dose: 66.0 mg/kg/injection, schedule: Q01DX011 (ip), vehicle: carboxymethylcellulose (CMC)): 29 % of control and 39 % of control and 40 % of control | T/C [3]: 27 % of control | T/C [4]: 48 % of control | T/C (dose: 387.5 mg/kg/injection, schedule: Q01DX011 (ip), vehicle: carboxymethylcellulose (CMC)): 55 % of control

CCOC(=O)C(C)(C)Br
T/C (dose: 50.0 mg/kg/injection, schedule: Q01DX011 (ip), vehicle: methylcellulose (MC)): 85 % of control | T/C (dose: 100.0 mg/kg/injection, schedule: Q01DX011 (ip), vehicle: methylcellulose (MC)): 107 % of control | T/C [5]: 47 % of control | T/C (dose: 400.0 mg/kg/injection, schedule: Q01DX011 (ip), vehicle: methylcellulose (MC)): 18 % of control | T/C (dose: 500.0 mg/kg/injection, schedule: Q01DX011 (ip), vehicle: methylcellulose (MC)): 13 % of control

Fc1cccc(CSc2ncnc3c2ncn3C2CCCS2)c1 (stereo not drawn)
T/C (dose: 25.0 mg/kg/injection, schedule: Q01DX011 (ip), vehicle: methylcellulose (MC)): 61 % of control | T/C [6]: 62 % of control | T/C (dose: 225.0 mg/kg/injection, schedule: Q01DX011 (ip), vehicle: methylcellulose (MC)): 32 % of control

Nc1nc(=S)cc(Nc2cccc(Cl)c2)[nH]1
T/C (dose: 15.0 mg/kg/injection, schedule: Q01DX011 (ip), vehicle: methylcellulose (MC)): 91 % of control | T/C (dose: 62.0 mg/kg/injection, schedule: Q01DX011 (ip), vehicle: methylcellulose (MC)): 87 % of control | T/C (dose: 125.0 mg/kg/injection, schedule: Q01DX011 (ip), vehicle: methylcellulose (MC)): 51 % of control

Cn1cnc2c(Cl)nc(C(F)(F)F)nc21
T/C [7]: 80 % of control

CC(C)CCn1cnc2c(=S)nc(N)[nH]c21
T/C (dose: 1.5 mg/kg/injection, schedule: Q01DX011 (ip), vehicle: methylcellulose (MC)): 48 % of control | T/C (dose: 3.1 mg/kg/injection, schedule: Q01DX011 (ip), vehicle: methylcellulose (MC)): 37 % of control | T/C (dose: 6.2 mg/kg/injection, schedule: Q01DX011 (ip), vehicle: methylcellulose (MC)): 14 % of control | T/C (dose: 12.5 mg/kg/injection, schedule: Q01DX011 (ip), vehicle: methylcellulose (MC)): 1 % of control and 9 % of control

CCC(C)Cn1cnc2c(SCc3ccccc3F)nc(N)nc21 (stereo not drawn)
T/C (dose: 20.0 mg/kg/injection, schedule: Q01DX011 (ip), vehicle: methylcellulose (MC)): 64 % of control | T/C (dose: 65.0 mg/kg/injection, schedule: Q01DX011 (ip), vehicle: methylcellulose (MC)): 76 % of control | T/C [5]: 30 % of control

Nc1nc(SCc2ccc([N+](=O)[O-])cc2)c2ncn(C3OC(CO)C(O)C3O)c2n1 (stereo not drawn)
T/C (dose: 18.75 mg/kg/injection, schedule: Q01DX011 (ip), vehicle: methylcellulose (MC)): 23 % of control | T/C (dose: 37.5 mg/kg/injection, schedule: Q01DX011 (ip), vehicle: methylcellulose (MC)): 20 % of control | T/C [6]: 8 % of control

CC(CNC(=O)CCBr)NC(=O)CCBr (stereo not drawn)
T/C (dose: 37.5 mg/kg/injection, schedule: Q01DX011 (ip), vehicle: carboxymethylcellulose (CMC)): 79 % of control and 81 % of control | T/C (dose: 75.0 mg/kg/injection, schedule: Q01DX011 (ip), vehicle: carboxymethylcellulose (CMC)): 26 % of control and 36 % of control | T/C [3]: 10 % of control and 19 % of control

C[C@]12CC[C@@H]3c4ccc(O)cc4CC[C@H]3[C@@H]1CC[C@@H]2O
T/C (dose: 125.0 mg/kg/injection, schedule: Q01DX011 (sc), vehicle: steriod suspending solution): 77 % of control | T/C (dose: 250.0 mg/kg/injection, schedule: Q01DX011 (sc), vehicle: steriod suspending solution): 32 % of control | T/C (dose: 500.0 mg/kg/injection, schedule: Q01DX011 (sc), vehicle: steriod suspending solution): 65 % of control | T/C (dose: 1000.0 mg/kg/injection, schedule: Q01DX011 (sc), vehicle: steriod suspending solution): 42 % of control

CC(=O)OCC1OC(n2cnc3c(=O)[nH]c(N)nc32)C(OC(C)=O)C1OC(C)=O (stereo not drawn)
T/C [7]: 59 % of control | T/C [8]: 49 % of control | T/C [9]: 57 % of control | T/C [10]: 51 % of control | T/C (dose: 400.0 mg/kg/injection, schedule: Q01DX011 (ip), vehicle: carboxymethylcellulose (CMC)): 87 % of control | T/C (dose: 600.0 mg/kg/injection, schedule: Q01DX011 (ip), vehicle: carboxymethylcellulose (CMC)): 83 % of control

O=NN(CCCl)C(=O)NCCCl
T/C (dose: 0.45 mg/kg/injection, schedule: Q01DX011 (ip), vehicle: carboxymethylcellulose (CMC)): 63 % of control and 66 % of control and 75 % of control | T/C (dose: 0.9 mg/kg/injection, schedule: Q01DX011 (ip), vehicle: carboxymethylcellulose (CMC)): 90 % of control and 98 % of control and 86 % of control | T/C (dose: 1.62 mg/kg/injection, schedule: Q01DX011 (ip), vehicle: saline): 93 % of control and 99 % of control | T/C (dose: 1.75 mg/kg/injection, schedule: Q01DX011 (ip), vehicle: carboxymethylcellulose (CMC)): 47 % of control | T/C (dose: 3.25 mg/kg/injection, schedule: Q01DX011 (ip), vehicle: saline): 79 % of control and 84 % of control | T/C (dose: 3.5 mg/kg/injection, schedule: Q01DX011 (ip), vehicle: carboxymethylcellulose (CMC)): 36 % of control and 40 % of control (2×) | T/C (dose: 6.5 mg/kg/injection, schedule: Q01DX011 (ip), vehicle: carboxymethylcellulose (CMC)): 32 % of control and 34 % of control | T/C (dose: 6.5 mg/kg/injection, schedule: Q01DX011 (ip), vehicle: saline): 59 % of control and 78 % of control | T/C (dose: 7.0 mg/kg/injection, schedule: Q01DX011 (ip), vehicle: carboxymethylcellulose (CMC)): 18 % of control (2×) and 40 % of control | T/C (dose: 13.0 mg/kg/injection, schedule: Q01DX011 (ip), vehicle: carboxymethylcellulose (CMC)): 13 % of control

CC(/C=N\N=C(N)N)=N/N=C(N)N
T/C (dose: 5.75 mg/kg/injection, schedule: Q01DX011 (ip), vehicle: carboxymethylcellulose (CMC)): 84 % of control | T/C (dose: 7.62 mg/kg/injection, schedule: Q01DX011 (ip), vehicle: carboxymethylcellulose (CMC)): 77 % of control | T/C (dose: 11.5 mg/kg/injection, schedule: Q01DX011 (ip), vehicle: carboxymethylcellulose (CMC)): 78 % of control | T/C (dose: 15.24 mg/kg/injection, schedule: Q01DX011 (ip), vehicle: carboxymethylcellulose (CMC)): 71 % of control | T/C (dose: 18.4 mg/kg/injection, schedule: Q01DX011 (ip), vehicle: carboxymethylcellulose (CMC)): 70 % of control and 86 % of control | T/C (dose: 23.0 mg/kg/injection, schedule: Q01DX011 (ip), vehicle: carboxymethylcellulose (CMC)): 93 % of control and 100 % of control and 80 % of control | T/C (dose: 30.48 mg/kg/injection, schedule: Q01DX011 (ip), vehicle: carboxymethylcellulose (CMC)): 42 % of control | T/C (dose: 46.0 mg/kg/injection, schedule: Q01DX011 (ip), vehicle: carboxymethylcellulose (CMC)): 29 % of control and 45 % of control and 51 % of control | T/C (dose: 60.96 mg/kg/injection, schedule: Q01DX011 (ip), vehicle: carboxymethylcellulose (CMC)): 35 % of control

CCOC(=O)n1cnc2ncnc(SC)c21
T/C (dose: 5.0 mg/kg/injection, schedule: Q01DX011 (ip), vehicle: carboxymethylcellulose (CMC)): 59 % of control | T/C (dose: 10.0 mg/kg/injection, schedule: Q01DX011 (ip), vehicle: carboxymethylcellulose (CMC)): 80 % of control | T/C (dose: 12.5 mg/kg/injection, schedule: Q01DX011 (ip), vehicle: carboxymethylcellulose (CMC)): 48 % of control | T/C [1]: 15 % of control | T/C [2]: 7 % of control | T/C [11]: 5 % of control | T/C [4]: 5 % of control

Nc1nc2c([nH]c(=S)n2C2OC(CO)C(O)C2O)c(=O)[nH]1 (stereo not drawn)
T/C [7]: 89 % of control | T/C [8]: 156 % of control | T/C [9]: 112 % of control | T/C [10]: 110 % of control

CCC(=O)c1cc2c(cc1CC)C(C)(C)CCC2(C)C
T/C [11]: 53 % of control and 63 % of control

O=C1[O][Sb]23[O]C(=O)C([O]2)C(O)C(O)C2[O][Sb]4([O]C(=O)C([O]4)C(O)C(O)C1[O]3)[O]C2=O (stereo not drawn)
T/C (dose: 80.0 mg/kg/injection, schedule: Q01DX011 (ip), vehicle: methylcellulose (MC)): 50 % of control and 55 % of control

Reference: PubChem BioAssay AID180 (DTP/NCI, 2004)
